Measured values: ChEMBL document CHEMBL3286145, “Evaluation of the antiprion activity of 6-aminophenanthridines and related heterocycles” (Eur J Med Chem, 2014)
Activity calls are given as the source filed them. No cut-off for these calls is given here.

Tests used:
Saccharomyces cerevisiae [1] = experiment: Antiprion activity against yeast STRg6 prion protein [PSI+] at 50 nmole by colorimetric assay
Saccharomyces cerevisiae [2] = experiment: Antiprion activity against yeast SB34 prion protein [URE3] at 50 nmole by colorimetric assay

| Structure (SMILES) | antiprion activity (active/not active) (Saccharomyces cerevisiae [1]) | antiprion activity (active/not active) (Saccharomyces cerevisiae [2]) |
| --- | --- | --- |
| Cc1ccc2c(N)nc3ccccc3c2n1 | inactive | inactive |
| CC[C@H](CO)Nc1nc2ccccc2c2ccccc12 | inactive | inactive |
| Nc1nc2cccnc2c2ccccc12 | inactive | inactive |
| Nc1nc2ccccc2c2cc(F)ccc12 | Active | Active |
| COc1cc(OC)c2nc(N)c3ccccc3c2c1 | Active | inactive |
| Cc1ccc2c(N)nc3ccccc3c2c1 | Active | Active |
| Nc1nc2ccccc2c2cnccc12 | inactive | inactive |
| Nc1ccc2c(c1)c(N)nc1ccccc12 | Active | inactive |
| Nc1nc2ccccc2c2ccccc12 | Active | Active |
| Nc1nc2ccccc2c2cc([N+](=O)[O-])ccc12 | Active | inactive |
| Nc1nc2ccccc2c2ccc([N+](=O)[O-])cc12 | Active | Active |
| Nc1nc2ncccc2c2ccccc12 | inactive | inactive |
| Nc1cccc2c1c(N)nc1ccccc12 | Active | Active |
| Nc1nc2ccccc2c2ccc(F)cc12 | Active | Active |
| Nc1nc2ccc(OC(F)(F)F)cc2c2ccccc12 | Active | inactive |
| Nc1nc2ccccc2c2ccc(C(F)(F)F)cc12 | Active | Active |
| Nc1nc2ccccc2c2c1CC=CC2 | Active | Active |
| [N-]=[N+]=Nc1ccc2c(c1)c(N)nc1ccccc12 | Active | Active |
| Cc1ccc2nc(N)c3ccccc3c2c1 | Active | inactive |
| Nc1nc2ccccc2c2cccc([N+](=O)[O-])c12 | Active | Active |
| Nc1nc2ccccc2c2c1CCCC2 | Active | Active |
| COc1ccc(CCNc2nc3ccccc3c3ccccc23)cc1OC | inactive | inactive |
| CN[S+]([O-])c1ccc2c(N)nc3ccccc3c2c1 (stereo not given) | inactive | inactive |
| Nc1nc2ccccc2c2cccc(F)c12 | Active | Active |
| Nc1nc2ccncc2c2ccccc12 | inactive | inactive |
